Measurements reported in patent US6825232B2, “Use of hydroxyeicosatetraenoic acid compounds to treat ophthalmic inflammatory disorders” (Alcon, Inc., priority 2002, dated 2004).
Marks after values point to notes of the source that are not given here.

Columns and labels:
IL-6 [1] = conditions: bone marrow stromal cells; cited from earlier work
IL-8 = conditions: 1 μM to 0.1 nM; human bone marrow stromal cells; cited from earlier work
IL-6 [2] = test: IL-6 release from IL-1β-stimulated primary human corneal fibroblast cells (ELISA); format: cell-based; conditions: for % Inhibition of IL-6 (pg/μg dsDNA): 30 min pretreatment, 10 ng/ml IL-1β for 3 hours, normalized to dsDNA
Protocol: Primary human corneal fibroblast cells were obtained from one donor and grown to confluence in Ham's F-10 medium. Fibroblasts were transferred to serum-free media and were pretreated for 30 minutes with various concentrations of 15(S)-HETE. The cells were then stimulated with 10 ng/ml IL-1β for 3 hours and aliquots of the supernatants were assayed for IL-6 by ELISA. Data were normalized by the amount of double stranded DNA (dsDNA) extracted from the cells.

CCCCC[C@H](O)/C=C/C=C\C/C=C\C/C=C\CCCC(=O)O [15(S)-HETE, 15-Hydroxyeicosatetraenoic acid]
effect on the spontaneous, serum- and cytokine-induced IL-6 synthesis (IL-6 [1]): no effect
effect on the spontaneous and serum-induced production of IL-8 (IL-8): no effect
% Inhibition of IL-6 (pg/μg dsDNA) (IL-6 [2]; 15(S)-HETE 0.5 μg): 53.1%
% Inhibition of IL-6 (pg/μg dsDNA) (IL-6 [2]; 15(S)-HETE 1 μg): 67.9* %
% Inhibition of IL-6 (pg/μg dsDNA) (IL-6 [2]; 15(S)-HETE 2 μg): 88.6** %
% Inhibition of IL-6 (pg/μg dsDNA) (IL-6 [2]; 15(S)-HETE 3 μg): 90.4** %
IC50 (IL-6 [2]; primary human corneal fibroblast cells, IL-1β stimulated, read-out: IC50 for IL-6 inhibition): < 500 nM
